Where only a bound is given, the exact number is not on record here.

From patent publication US10597382B2, “Tetrazole containing apoptosis signal-regulating kinase 1 inhibitors and methods of use thereof” (ENANTA PHARMACEUTICALS, INC., priority 2017, dated 2020) come the findings set out here.

The target in the assay is ASK1 kinase (Homo sapiens (Human), UniProt Q99683). The assay is described as follows: HTRF KinEASE assay of ASK1 kinase activity inhibition. It is filed as biochemical. The following applies: HTRF KinEASE-STK TR-FRET; 5 nM ASK1, 1 uM STK3 peptide substrate, 100 uM ATP, 3 hours. As for the experimental part: • The ability (IC50) of compounds to inhibit ASK1 kinase activity was determined by HTRF® KinEASE™ Assay System
Sequence of ASK1 kinase (Q99683 whole entry): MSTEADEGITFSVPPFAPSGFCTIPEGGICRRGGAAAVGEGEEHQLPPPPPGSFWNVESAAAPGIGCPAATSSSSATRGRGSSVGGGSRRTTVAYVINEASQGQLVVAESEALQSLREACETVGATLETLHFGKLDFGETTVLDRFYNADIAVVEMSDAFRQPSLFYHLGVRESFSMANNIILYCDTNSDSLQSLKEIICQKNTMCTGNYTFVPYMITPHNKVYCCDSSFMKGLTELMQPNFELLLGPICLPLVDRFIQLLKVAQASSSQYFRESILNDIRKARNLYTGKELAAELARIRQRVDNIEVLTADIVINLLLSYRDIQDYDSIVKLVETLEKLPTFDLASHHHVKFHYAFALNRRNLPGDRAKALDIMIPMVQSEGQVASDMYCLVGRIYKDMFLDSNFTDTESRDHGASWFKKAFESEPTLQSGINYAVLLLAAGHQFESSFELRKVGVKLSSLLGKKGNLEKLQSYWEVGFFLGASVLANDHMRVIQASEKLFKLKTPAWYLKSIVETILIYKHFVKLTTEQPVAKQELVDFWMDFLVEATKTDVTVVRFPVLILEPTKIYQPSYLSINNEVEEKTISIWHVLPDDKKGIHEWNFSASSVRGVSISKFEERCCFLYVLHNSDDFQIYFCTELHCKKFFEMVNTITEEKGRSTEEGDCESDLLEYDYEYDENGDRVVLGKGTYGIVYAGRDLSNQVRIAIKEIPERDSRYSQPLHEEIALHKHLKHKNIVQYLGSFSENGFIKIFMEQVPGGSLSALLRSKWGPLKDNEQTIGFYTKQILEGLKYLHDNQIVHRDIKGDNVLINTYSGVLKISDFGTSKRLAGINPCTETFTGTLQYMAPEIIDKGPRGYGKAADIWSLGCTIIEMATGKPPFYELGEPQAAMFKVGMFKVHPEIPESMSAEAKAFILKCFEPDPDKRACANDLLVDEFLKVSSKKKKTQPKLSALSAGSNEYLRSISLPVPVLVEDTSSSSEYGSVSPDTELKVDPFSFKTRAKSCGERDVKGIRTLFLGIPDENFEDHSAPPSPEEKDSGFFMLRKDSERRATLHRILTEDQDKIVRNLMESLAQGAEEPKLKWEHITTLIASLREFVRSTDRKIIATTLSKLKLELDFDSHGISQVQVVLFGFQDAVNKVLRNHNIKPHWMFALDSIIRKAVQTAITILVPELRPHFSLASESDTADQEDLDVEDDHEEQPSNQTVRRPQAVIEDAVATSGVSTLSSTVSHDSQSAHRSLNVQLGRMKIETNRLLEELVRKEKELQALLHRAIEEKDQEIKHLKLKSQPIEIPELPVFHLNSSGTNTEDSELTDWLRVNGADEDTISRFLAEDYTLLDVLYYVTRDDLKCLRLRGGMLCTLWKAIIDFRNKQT
ASK1 kinase was from Thermofisher (Catalogue # PV4011), ATP was from Sigma (Catalogue # A7699), HTRF® KinEASE™ Assay System was obtained from Cisbio (Bedford, Mass.). ½ Area plate was from Perkin Elmer (Catalogue #6005560). HTRF® KinEASE™-STK is a generic method for measuring serine/threonine kinase activities using time-resolved fluorescence resonance energy transfer (TR-FRET) immunoassay. The IC50 value for each compound was determined in the presence of compound (various concentration from 0 to 10 uM) and a fixed amount of ATP, peptide substrates. Test compound, 1 uM STK3 peptide substrate, 5 nM of ASK1 kinase are incubated with kinase reaction buffer, containing 50 mM HEPES pH 7.5, 0.01% BRIJ-35, 10 mM MgCl2, and 1 mM EGTA for 30 minutes, then 100 uM ATP is added to start kinase reaction and incubated for 3 hours. The STK3-antibody labeled with Eu^3+-Cryptate and 125 nM streptavidin-XL665 are mixed in a single addition with stop reagents provided by the Cisbio kit used to stop the kinase reaction. Fluorescence is detected using Envision Multilabeled 2014 reader from PerkinElmer. The Fluorescence is measured at 615 nm (Cryptate) and 665 nm (XL665) and a ratio of 665 nm/615 nm is calculated for each well. The resulting TR-FRET is proportional to the phosphorylation level. Staurosporine was used as the positive control. IC50 was determined by Xlfit 5.3.
By using above method, the inhibition of ASK1 was tested for the compound of formula (I). IC50 ranges are as follows: A<1 nM; 1 nM<[…]B<10 nM; 10 nM<C<100 nM; 100 nM<D<1 μM; E>1 μM.
Consider `CC(C)c1nnnn1-c1cccc(N2Cc3ccc(-n4cnc(C5CC5)c4)cc3C2=O)n1` [Example 1, 6-(4-cyclopropyl-1H-imidazol-1-yl)-2-(6-(5-isopropyl-1H-tetrazol-1-yl)pyridine-2-yl)isoindolin-1-one], for which the IC50 (as a rule, the concentration that inhibits the measured activity by half) was 1 to 10 nM.
In the case of `CC(C)n1nnnc1-c1cccc(N2Cc3ccc(-n4cnc(C5CC5)c4)cc3C2=O)n1` [Example 2, 6-(4-cyclopropyl-1H-imidazol-1-yl)-2-(6-(1-isopropyl-1H-tetrazol-5-yl)pyridine-2-yl)isoindolin-1-one] it was 10 to 100 nM; in that of `CC(=O)OC[C@@H](C)n1nnnc1-c1cccc(N2Cc3ccc(-n4cnc(C5CC5)c4)cc3C2=O)n1` [Example 3, I-2-(5-(6-(6-(4-cyclopropyl-1H-imidazol-1-yl)-1-oxoisoindolin-2-yl)pyridine-2-yl)-1H-tetrazol-1-yl)propyl acetate], 100 to 1000 nM.
Compound `C[C@H](CO)n1nnnc1-c1cccc(N2Cc3ccc(-n4cnc(C5CC5)c4)cc3C2=O)n1` [Example 4, I-6-(4-cyclopropyl-1H-imidazol-1-yl)-2-(6-(1-(1-hydroxypropan-2-yl)-1H-tetrazol-5-yl)pyridine-2-yl)isoindolin-1-one] registered an IC50 of 10 to 100 nM.
In turn, `CC(=O)OC[C@@H](C)n1nnnc1-c1cccc(N2Cc3ccc(OC(C)C)cc3C2=O)n1` [Example 5, I-2-(5-(6-(6-isopropoxy-1-oxoisoindolin-2-yl)pyridine-2-yl)-1H-tetrazol-1-yl)propyl acetate] yielded an IC50 of more than 1000 nM.
Turning to `CC(C)Oc1ccc2c(c1)C(=O)N(c1cccc(-c3nnnn3[C@H](C)CO)n1)C2` [Example 6, I-2-(6-(1-(1-hydroxypropan-2-yl)-1H-tetrazol-5-yl)pyridine-2-yl)-6-isopropoxyisoindolin-1-one], the IC50 is 1 to 10 nM.
As for `CC(C)n1nnnc1-c1cccc(N2Cc3ccccc3C2=O)n1` [Example 7], the IC50 was in the range of 10 to 100 nM.
For `CC(C)c1nnnn1-c1cccc(N2Cc3ccc(N4CCOCC4)cc3C2=O)n1` [Example 8], the IC50 was 100 to 1000 nM.
Take `CC(C)c1nnnn1-c1cccc(N2Cc3ccc(-c4cccnc4)cc3C2=O)n1` [Example 9]: the IC50 fell in the range of 10 to 100 nM.
The compound `CCN1CCN(c2ccc3c(c2)C(=O)N(c2cccc(-n4nnnc4C(C)C)n2)C3)CC1=O` [Example 10] registered an IC50 of 10 to 100 nM.
The compound `Cc1ncccc1-c1ccc2c(c1)C(=O)N(c1cccc(-n3nnnc3C(C)C)n1)C2` [Example 11] displayed a half-maximal inhibitory concentration (IC50) of 100 to 1000 nM.
For `Cc1ccncc1-c1ccc2c(c1)C(=O)N(c1cccc(-n3nnnc3C(C)C)n1)C2` [Example 12], the IC50 was in the range of 100 to 1000 nM.
With `CC(C)n1nnnc1-c1cccc(N2Cc3ccc(-c4cccnc4)cc3C2=O)n1` [Example 13], the IC50 was in the range of 1 to 10 nM.
Regarding `Cc1cc2c(cc1OC(C)C)C(=O)N(c1cccc(-c3nnnn3[C@H](C)CO)n1)C2` [Example 14], the IC50 lay within 1 to 10 nM.
`CC(C)n1nnnc1-c1cccc(N2Cc3ccc(-c4cncc(C5CC5)c4)cc3C2=O)n1` [Example 15] came in with an IC50 of 10 to 100 nM.
In the case of `CC(C)n1nnnc1-c1cccc(N2Cc3ccc(-c4ccc(C5CC5)nc4)cc3C2=O)n1` [Example 16] it was 10 to 100 nM.
